Data: patent US20250340552A1, “COMPOUNDS, COMPOSITIONS AND METHODS OF TREATING DISORDERS” (HOTSPOT THERAPEUTICS, INC., priority 2022, published 2025)
Read-outs that look alike come from different tables or passages of the source.

Target: T1, Cbl-B (Homo sapiens, UniProt Q13191)
T1 construct: MSD-Based Assay for Degradation of Cbl-B in THP-1 Cells; endogenous in cells; host or cells: THP-1 (title) / Jurkat (protocol text)
Assay: MSD-based assay for degradation of Cbl-B in THP-1 cells
Assay type: cell-based
Method in brief: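 Reported Dmax bins are A >70%, B 50–70%, C 30–50% and D <30%, from an electrochemiluminescence (MSD) sandwich assay of Cbl-B in cell lysates. THP-1 cells were exposed to compounds for 24 hours before lysis.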

[1] = Cbl-B degradation, Jurkat cells seeded (heading: THP-1 cells), 24 hours incubation, MSD readout
[2] = Cbl-B degradation, Jurkat cells seeded (heading: THP-1 cells), 24 hours incubation, MSD readout, read-out: Dmax

T1 sequence (Q13191 whole entry): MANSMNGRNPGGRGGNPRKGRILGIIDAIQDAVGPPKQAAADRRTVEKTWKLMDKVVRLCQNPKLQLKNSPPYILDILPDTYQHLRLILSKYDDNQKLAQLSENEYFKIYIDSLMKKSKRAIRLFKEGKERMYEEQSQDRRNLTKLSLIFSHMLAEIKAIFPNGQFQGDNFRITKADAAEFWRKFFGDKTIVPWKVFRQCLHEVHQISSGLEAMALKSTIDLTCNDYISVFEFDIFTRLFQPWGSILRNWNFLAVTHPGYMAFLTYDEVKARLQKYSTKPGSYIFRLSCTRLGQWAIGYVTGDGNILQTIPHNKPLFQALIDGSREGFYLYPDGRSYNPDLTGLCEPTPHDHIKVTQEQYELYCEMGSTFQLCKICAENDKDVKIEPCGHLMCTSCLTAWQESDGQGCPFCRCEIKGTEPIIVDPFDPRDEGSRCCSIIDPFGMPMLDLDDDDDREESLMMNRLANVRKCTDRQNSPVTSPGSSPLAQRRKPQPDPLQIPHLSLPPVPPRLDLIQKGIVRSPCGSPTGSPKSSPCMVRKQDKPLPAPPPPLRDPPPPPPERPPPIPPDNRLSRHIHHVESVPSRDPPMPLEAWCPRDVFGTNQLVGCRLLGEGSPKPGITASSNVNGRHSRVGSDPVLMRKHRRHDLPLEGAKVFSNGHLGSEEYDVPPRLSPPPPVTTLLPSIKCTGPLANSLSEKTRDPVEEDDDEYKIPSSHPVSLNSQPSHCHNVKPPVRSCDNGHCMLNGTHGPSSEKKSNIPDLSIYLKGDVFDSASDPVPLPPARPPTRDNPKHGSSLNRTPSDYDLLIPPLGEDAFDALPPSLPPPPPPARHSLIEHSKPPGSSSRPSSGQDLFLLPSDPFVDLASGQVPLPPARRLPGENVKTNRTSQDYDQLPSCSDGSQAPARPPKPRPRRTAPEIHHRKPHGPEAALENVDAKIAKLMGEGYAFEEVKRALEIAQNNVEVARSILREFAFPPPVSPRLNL

Compound	DC50 [1]	Dmax (THP-1)	Dmax [2]
Cn1cnnc1CC1(c2cccc(-n3cc4c(C(F)(F)F)cc(CN5CCC(OCCCN6CCN(c7ccc8c(c7)CN([C@@H]7CCC(=O)NC7=O)C8=O)CC6)CC5)cn4c3=O)c2)COC1 (single isomer, unassigned) [Compound 67]	> 10000 nM	< 30%	
Cn1cnnc1[C@@H](c1cccc(-n2cc3c(C(F)(F)F)cc(CN4CCC(OCc5ccc(C6CCN(c7ccc8c(c7)CN([C@H]7CCC(=O)NC7=O)C8=O)CC6)cc5)CC4)cn3c2=O)c1)C1CCC1 (single isomer, unassigned) [Compound 214]	30 to 300 nM		30 to 50%
Cn1cnnc1[C@@H](c1cccc(-n2cc3c(C(F)(F)F)cc(CN4CCC(OCCN5CCN(CC6CCN(c7ccc8c(c7)CN([C@H]7CCC(=O)NC7=O)C8=O)CC6)CC5)CC4)cn3c2=O)c1)C1CCC1 (single isomer, unassigned) [Compound 80]	< 30 nM		50 to 70%
Cn1cnnc1[C@@H](c1cccc(-n2cc3c(C(F)(F)F)cc(CN4CCC[C@H](OC5CCN(C(=O)c6ccc(N7CCN(c8ccc9c(c8)CN([C@H]8CCC(=O)NC8=O)C9=O)CC7)cc6)CC5)C4)cn3c2=O)c1)C1CCC1 (single isomer, unassigned) [Compound 196]	< 30 nM		> 70%
Cn1cnnc1[C@@H](c1cccc(-n2cc3c(C(F)(F)F)cc(CN4CCC[C@H](OCCc5ccc(CN6CCN(c7ccc8c(c7)CN([C@@H]7CCC(=O)NC7=O)C8=O)CC6)cc5)C4)cn3c2=O)c1)C1CCC1 (single isomer, unassigned) [Compound 127]	> 10000 nM		< 30%
Cn1cnnc1[C@@H](c1cccc(-n2cc3c(C(F)(F)F)cc(CN4CCC(CC(=O)N5CCC(C6CCN(c7ccc8c(c7)CN([C@H]7CCC(=O)NC7=O)C8=O)CC6)CC5)CC4)cn3c2=O)c1)C1CCC1 (single isomer, unassigned) [Compound 178]	< 30 nM		> 70%
CN(CC1CCN(Cc2cc(C(F)(F)F)c3cn(-c4cccc([C@H](c5nncn5C)C5CCC5)c4)c(=O)n3c2)CC1)C(=O)c1ccc(N2CCN(c3ccc4c(c3)CN([C@H]3CCC(=O)NC3=O)C4=O)CC2)cc1 (single isomer, unassigned) [Compound 118]	< 30 nM		> 70%
CN(CCOC1CCN(Cc2cc(C(F)(F)F)c3cn(-c4cccc([C@H](c5nncn5C)C5CCC5)c4)c(=O)n3c2)CC1)C(=O)c1ccc(N2C3CC2CN(c2ccc4c(c2)CN([C@H]2CCC(=O)NC2=O)C4=O)C3)cc1 (single isomer, unassigned) [Compound 146]	> 10000 nM		< 30%
Cn1cnnc1CC1(c2cccc(-n3cc4c(C(F)(F)F)cc(CN5CCC(OCc6ccc(N7CCN(c8ccc9c(c8)CN([C@@H]8CCC(=O)NC8=O)C9=O)CC7)cc6)CC5)cn4c3=O)c2)COC1 (single isomer, unassigned) [Compound 249]	30 to 300 nM		30 to 50%
Cn1cnnc1[C@@H](c1cccc(-n2cc3c(C(F)(F)F)cc(CN4CCC[C@H](OCc5ccc(CC6CCN(c7ccc8c(c7)CN([C@@H]7CCC(=O)NC7=O)C8=O)CC6)cc5)C4)cn3c2=O)c1)C1CCC1 (single isomer, unassigned) [Compound 187]	> 10000 nM		
Cn1cnnc1CC1(c2cccc(-n3cc4c(C(F)(F)F)cc(CN5CCC(OCCN6CCC(CN7CCN(c8cc9c(cc8F)C(=O)N(C8CCC(=O)NC8=O)C9=O)CC7)CC6)CC5)cn4c3=O)c2)COC1 (stereo not drawn) [Compound 7]	> 10000 nM	< 30%	
Cn1cnnc1CC1(c2cccc(-n3cc4c(C(F)(F)F)cc(CN5CCN(CCc6ccc(C7CCN(c8ccc9c(c8)CN([C@H]8CCC(=O)NC8=O)C9=O)CC7)cc6)CC5)cn4c3=O)c2)COC1 [Compound 230]	< 30 nM		
CN(C(=O)c1ccc(N2CCN(c3ccc4c(c3)CN([C@@H]3CCC(=O)NC3=O)C4=O)CC2)cc1)C1CCN(Cc2cc(C(F)(F)F)c3cn(-c4cccc([C@H](c5nncn5C)C5CCC5)c4)c(=O)n3c2)CC1 [Compound 137]	30 to 300 nM		30 to 50%
CN(CCOC1CCN(Cc2cc(C(F)(F)F)c3cn(-c4cccc([C@H](c5nncn5C)C5CCC5)c4)c(=O)n3c2)CC1)C(=O)c1ccc(N2CC3CC(C2)N3c2ccc3c(c2)CN([C@H]2CCC(=O)NC2=O)C3=O)cc1 (single isomer, unassigned) [Compound 90]	1000 to 10000 nM		30 to 50%
CN(C(=O)c1ccc(CN2CCN(c3ccc4c(c3)CN([C@H]3CCC(=O)NC3=O)C4=O)CC2)cc1)C1CCN(Cc2cc(C(F)(F)F)c3cn(-c4cccc(C5(Cc6nncn6C)COC5)c4)c(=O)n3c2)CC1 (single isomer, unassigned) [Compound 246]	< 30 nM		> 70%
Cn1cnnc1[C@@H](c1cccc(-n2cc3c(C(F)(F)F)cc(CN4CCC[C@H](OCCc5ccc(CN6CCN(c7ccc8c(c7)CN([C@H]7CCC(=O)NC7=O)C8=O)CC6)cc5)C4)cn3c2=O)c1)C1CCC1 (single isomer, unassigned) [Compound 128]	< 30 nM		50 to 70%
Cn1cnnc1CC1(c2cccc(-n3cc4c(C(F)(F)F)cc(CN5CCC(OCCN6CCC(CN7CCN(c8ccc9c(c8)CN([C@@H]8CCC(=O)NC8=O)C9=O)CC7)CC6)CC5)cn4c3=O)c2)COC1 (single isomer, unassigned) [Compound 47]	300 to 1000 nM		50 to 70%
Cn1cnnc1CC1(c2cccc(-n3cc4c(C(F)(F)F)cc(CN5CCC[C@H](OCc6ccc(CN7CCN(c8ccc9c(c8)CN([C@@H]8CCC(=O)NC8=O)C9=O)CC7)cc6)C5)cn4c3=O)c2)COC1 (single isomer, unassigned) [Compound 83]	> 10000 nM		< 30%
Cn1cnnc1[C@@H](c1cccc(-n2cc3c(C(F)(F)F)cc(CN4CCC[C@H](OCCN5CCC(CN6CCN(c7ccc8c(c7)CN([C@@H]7CCC(=O)NC7=O)C8=O)CC6)CC5)C4)cn3c2=O)c1)C1CCC1 [Compound 55]	1000 to 10000 nM		30 to 50%
